As a reminder, the inhibition is the change of the read-out against control, counted positive when it falls. Read a low inhibition as a weak effect. By IC50 is commonly meant the concentration that gives 50% inhibition. High values mean lower potency, low ones higher potency.

The species named for one experiment is Homo sapiens. Kind of experiment: Compound tested for the inhibition of IL1-beta release stimulated with LPS in human monocytes was determined at a concentration of 1 uM. Type of experiment: functional.
Take `COC(=O)[C@@]1(C)CCC[C@]2(C)c3cc(O)c(O)cc3CCC12` (stereo partly drawn): the inhibition at 1 µM is 42%.

The molecule `COC(=O)[C@@]1(C)CCC[C@]2(C)c3cc(O)c(C(C)C)cc3C=C[C@@H]12` gave an inhibition at 1 µM of 38%.

Molecule `COC(=O)[C@@]1(C)CCC[C@]2(C)c3cc(O)c([N+](=O)[O-])cc3C=C[C@@H]12` came in with an inhibition at 1 µM of 5%.

`COC(=O)[C@@]1(C)CCC[C@]2(C)c3cc(O)ccc3CCC12` (stereo partly drawn) yielded an inhibition at 1 µM of 15%.

The species named for a further experiment is Homo sapiens. The experiment is described as follows: Inhibition of IL1-beta release stimulated with LPS in human monocytes. Type of experiment: functional.
In turn, `COC(=O)c1cc2c(c(C)c1C(=O)OC)C(C)=CC1[C@@](C)(C(=O)OC)CCC[C@]21C` (stereo partly drawn) yielded an IC50 of 200 nM.

`CCOC(=O)CCCNC(=O)[C@@]1(C)CCC[C@]2(C)c3cc(C(=O)OC)c(C(=O)OC)cc3C=CC12` (stereo partly drawn): inhibition was half-maximal at 150 nM (IC50).

`COC(=O)[C@@]1(C)CCC[C@]2(C)c3cc(C(=O)OC(C)(C)C)c(C(=O)OC(C)(C)C)cc3C=CC12` (stereo partly drawn) came in with an IC50 of 540 nM.

With `COC(=O)[C@@]1(C)CCC[C@]2(C)c3cc(C(=O)OC(C)C)c(C(=O)OC(C)C)cc3C=CC12` (stereo partly drawn), the IC50 worked out at 110 nM.

The molecule `COC(=O)c1cc2c(cc1C(=O)OC)[C@@]1(C)CCC[C@](C)(C(=O)O)C1C=C2` (stereo partly drawn) returned an IC50 of 110 nM.

As to `C=CCc1c2c(cc(C(=O)OC)c1C(=O)OC)[C@@]1(C)CCC[C@](C)(C(=O)OC)C1CC2` (stereo partly drawn), the midpoint of inhibition, the IC50, lay at 200 nM. Compared with the last molecule, the IC50 is about 1.8-fold higher.

For `COC(=O)[C@@]1(C)CCC[C@]2(C)c3cc(O)c(OC)cc3C=C[C@@H]12`, the IC50 turned out to be 100 nM. This IC50 is about 2-fold lower than that of the molecule before.

`COC(=O)Cc1cc2c(cc1C(=O)OC)[C@@]1(C)CCC[C@](C)(C(=O)OC)[C@@H]1C=C2` had an IC50 of 400 nM.

`COC(=O)c1cc2c(cc1C(=O)OC)[C@@]1(C)CCC[C@](C)(C(=O)OC)C1C=C2` (stereo partly drawn) displayed an IC50 of 100 nM.

With `COc1cc2c(c(C)c1O)C=C[C@H]1[C@@](C)(C(=O)O)CCC[C@]21C`, it took 100 nM to reach half-maximal inhibition (IC50).

For the molecule `COC(=O)[C@@]1(C)CCC[C@]2(C)c3cc(O)c(O)cc3C=CC12` (stereo partly drawn), 100 nM corresponded to half-maximal inhibition (IC50). In other words, the sub-micromolar range.

In turn, `COC(=O)[C@@]1(C)CCC[C@]2(C)c3cc(OC)c(O)cc3C=C[C@@H]12` came in with an IC50 of 100 nM. This lies in the sub-micromolar range.

Consider `COC(=O)c1cc2c(cc1C(=O)OC)[C@@]1(C)CCC[C@](C)(C(=O)N3CCOCC3)C1C=C2` (stereo partly drawn), for which the IC50 came to 110 nM.

For `COC(=O)[C@@]1(C)CCC[C@]2(C)c3cc(OC)c(O)cc3CC[C@@H]12`, half-maximal inhibition (IC50) was put at 1400 nM.

For the molecule `COC(=O)c1cc2c(cc1NS(C)(=O)=O)C=C[C@H]1[C@@](C)(C(=O)OC)CCC[C@]21C`, the midpoint of inhibition, the IC50, lay at 100 nM. Compared with the last molecule, the IC50 is about 14-fold lower.

Take `COC(=O)C[C@@]1(C)CCC[C@]2(C)c3cc(C(=O)OC)c(C(=O)OC)cc3C=CC12` (stereo partly drawn): the midpoint of inhibition, the IC50, lay at 160 nM. Compared with the last molecule, the IC50 is about 1.6-fold higher.

Take `COC(=O)c1cc2c(c(C)c1C(=O)OC)C=CC1[C@@](C)(C(=O)OC)CCC[C@]21C` (stereo partly drawn): half-maximal inhibition (IC50) was put at 140 nM.

The molecule `CCCc1c2c(cc(C(=O)OC)c1C(=O)OC)[C@@]1(C)CCC[C@](C)(C(=O)OC)C1C=C2` (stereo partly drawn) returned an IC50 of 110 nM.

`COC(=O)[C@@]1(C)CCC[C@]2(C)c3cc(O)c(N)cc3C=C[C@@H]12`: the IC50 was found to be 150 nM.

The molecule `COC(=O)c1cc2c(cc1C(=O)OC)[C@@]1(C)CCC[C@](C)(C(=O)OC)C1CC2=O` (stereo partly drawn) gave an IC50 of 1000 nM.

`COC(=O)c1cc2c(cc1OC)[C@@]1(C)CCC[C@](C)(C(=O)OC)[C@@H]1C=C2` gave an IC50 of 160 nM.

The molecule `COC(=O)c1cc2c(cc1Br)C=C[C@H]1[C@@](C)(C(=O)OC)CCC[C@]21C` gave an IC50 of 800 nM.

`COC(=O)c1cc2c(c(C(C)=O)c1C(=O)OC)CCC1[C@@](C)(C(=O)OC)CCC[C@]21C` (stereo partly drawn) displayed an IC50 of 110 nM.

As for `COC(=O)c1cc2c(c(Br)c1C(=O)OC)CCC1[C@@](C)(C(=O)OC)CCC[C@]21C` (stereo partly drawn), the IC50 is 400 nM.

`COC(=O)c1cc2c(cc1OC)[C@@]1(C)CCC[C@](C)(C(=O)OC)[C@@H]1C(=O)C2` yielded an IC50 of 260 nM.

Molecule `CCCc1c2c(cc(C(=O)OC)c1C(=O)OC)[C@@]1(C)CCC[C@](C)(C(=O)OC)C1CC2` (stereo partly drawn) came in with an IC50 of 300 nM.

For the molecule `COC(=O)c1cc2c(cc1OC)C=C[C@H]1[C@@](C)(C(=O)OC)CCC[C@]21C`, half-maximal inhibition (IC50) required 100 nM.

`CCCc1c2c(cc(OC)c1C(=O)OC)[C@@]1(C)CCC[C@](C)(C(=O)OC)[C@@H]1C=C2`: 300 nM corresponded to half-maximal inhibition (IC50). Against the preceding molecule, the IC50 is about 3-fold higher.

Turning to `CCCc1c(C(=O)OC)c(C(=O)OC)cc2c1C(=O)CC1[C@@](C)(C(=O)OC)CCC[C@]21C` (stereo partly drawn), half-maximal inhibition (IC50) required 800 nM. Compared with the last molecule, the IC50 is about 2.7-fold higher.

The record behind these values is ChEMBL document CHEMBL1131935, “Novel cytokine release inhibitors. Part IV: analogs of podocarpic acid” (Bioorg Med Chem Lett, 1999).
